From US8110573B2, “Pyrazole compounds that modulate the activity of CDK, GSK and aurora kinases” (Astex Therapeutics Limited, priority 2004, dated 2012) come the findings set out here.

Series [1] addresses T1, CDK1/CyclinB (Homo sapiens, UniProt P06493).
T1 construct: purchased Upstate Discovery
The series is described as follows: Activated CDK1/CyclinB kinase inhibitory activity assay. Type of series: biochemical. As to the method:
(§1) The reaction is allowed to proceed for 2 to 4 hours before being stopped with an excess of ortho-phosphoric acid (5 μl at 2%). γ^33P-ATP which remains unincorporated into the histone H1 is separated from phosphorylated histone H1 on a Millipore MAPH filter plate. The wells of the MAPH plate are wetted with 0.5% orthophosphoric acid, and then the results of the reaction are filtered with a Millipore vacuum filtration unit through the wells. Following filtration, the residue is washed twice with 200 μl of 0.5% orthophosphoric acid. Once the filters have dried, 20 μl of Microscint 20 scintillant is added, and then counted on a Packard Topcount for 30 seconds.
CDK1/CyclinB assay is identical to the CDK2/CyclinA above except that CDK1/CyclinB (Upstate Discovery) is used and the enzyme is diluted to 6.25 nM.

In series [2] the target is CDK2/CyclinA (Homo sapiens, UniProt P24941). The series is described as follows: Activated CDK2/CyclinA kinase inhibitory activity assay. The format is biochemical. As to the method: as §1
For series [3], the system named is HCT-116 cell line. Briefly: Anti-proliferative activity (Alamar Blue assay). The format is cell-based, human. As to the method: The anti-proliferative activities of compounds of the invention can be determined by measuring the ability of the compounds to inhibition of cell growth in a number of cell lines. Inhibition of cell growth is measured using the Alamar Blue assay (Nociari, M. M, Shalev, A., Benias, P., Russo, C. Journal of Immunological Methods 1998, 213, 157-167). The method is based on the ability of viable cells to reduce resazurin to its fluorescent product resorufin. For each proliferation assay cells are plated onto 96 well plates and allowed to recover for 16 hours prior to the addition of inhibitor compounds for a further 72 hours. At the end of the incubation period 10% (v/v) Alamar Blue is added and incubated for a further 6 hours prior to determination of fluorescent product at […]. In the case of the non-proliferating cell assay cells are maintained at confluence for 96 hour prior to the addition of inhibitor compounds for a further 72 hours. The number of viable cells is determined by Alamar Blue assay as before. In addition, any morphological changes are recorded. Cell lines can be obtained from the ECACC (European Collection of cell Cultures).
In particular, compounds of the invention were tested against the HCT-116 cell line (ECACC Reference: 91091005) derived from human colon carcinoma.

Series [4] can be described thus: Salt stability at 40° C. 75% RH followed by XRPD. Type of series: physicochemical. To be noted: 40° C. and 75% RH over the period of 1-2 month.
Description: Approximately 15 mg of samples for the stability study were gently ground by marble mortar and transferred to a Petri dish in a thin layer. Samples were then placed in sealed containers containing saturated NaCl solution with an excess of undissolved NaCl. […] Samples were analysed by X-ray powder diffraction (XRPD) in regular intervals. Samples for XRPD data collection were loaded into crystallographic capillary (from Hampton Research, made of Quartz, diameter=0.4 mm). […] 2D Images were collected while spinning φ axis with a detector to crystal distance of 250 mm. Data collection was controlled by CrystalClear software and 2D images were converted to 1D plot (2θ vs. Intensity) by Datasqueeze (intensity averaged over the azimuthal angle 0<χ<360° for 2θ range 3-30° in 0.01° steps).

T1 sequence (P06493 whole entry): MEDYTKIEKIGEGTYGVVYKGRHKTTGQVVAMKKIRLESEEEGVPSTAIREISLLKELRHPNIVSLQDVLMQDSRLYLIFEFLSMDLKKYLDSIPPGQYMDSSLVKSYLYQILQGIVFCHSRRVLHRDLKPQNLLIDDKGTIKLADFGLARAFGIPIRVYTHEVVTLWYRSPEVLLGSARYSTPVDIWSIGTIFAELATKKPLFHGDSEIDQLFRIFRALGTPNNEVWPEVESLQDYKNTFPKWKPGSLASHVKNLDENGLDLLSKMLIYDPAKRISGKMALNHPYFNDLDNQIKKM
T1 sequence (P14635 whole entry partner): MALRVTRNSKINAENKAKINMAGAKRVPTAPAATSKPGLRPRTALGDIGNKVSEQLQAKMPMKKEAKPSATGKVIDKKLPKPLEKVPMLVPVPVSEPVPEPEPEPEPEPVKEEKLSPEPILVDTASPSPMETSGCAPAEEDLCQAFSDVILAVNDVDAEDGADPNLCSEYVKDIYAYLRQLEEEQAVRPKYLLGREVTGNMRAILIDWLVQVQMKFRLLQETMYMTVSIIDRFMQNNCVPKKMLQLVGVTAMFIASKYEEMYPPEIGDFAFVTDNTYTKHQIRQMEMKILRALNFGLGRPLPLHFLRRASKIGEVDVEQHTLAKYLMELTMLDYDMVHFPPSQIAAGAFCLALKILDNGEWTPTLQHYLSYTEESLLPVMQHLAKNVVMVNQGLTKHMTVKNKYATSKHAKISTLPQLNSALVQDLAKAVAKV

Usually IC50 stands for the concentration that inhibits the measured activity by half. Consider `COc1cc2nc(-c3n[nH]cc3NC(=O)C3CN(C(C)C)CCO3)[nH]c2cc1OC` (racemic) [Example 16, N-[3-(5,6-dimethoxy-1H-benzimidazol-2-yl)-1H-pyrazol-4-yl]-rac-4 isopropyl-2-morpholine carboxamide], for which the IC50 in series [1] was < 10 µM.

For `COc1cc2nc(-c3n[nH]cc3NC(=O)C3CCCN(C)C3)[nH]c2cc1OC` (racemic) [Example 17, N-[3-(5,6-dimethoxy-H-benzimidazol-2-yl)-1H-pyrazol-4-yl]-rac-1-methyl-piperidine 3-carboxamide], the IC50 in series [1] is < 10 µM.

`COc1ccc(C#N)cc1C(=O)Nc1c[nH]nc1-c1nc2cc(CN3CCOCC3)ccc2[nH]1` [Example 1, 5-cyano-2-methoxy-N-[3-(5-morpholin-4-ylmethyl-1H-benzoimidazol-2-yl)-1H-pyrazol-4-yl]-benzamide]: the IC50 in series [2] and in series [1] was < 1 µM in each case.

For the compound `Cc1nc2sccn2c1C(=O)Nc1c[nH]nc1-c1nc2cc(CN3CCOCC3)ccc2[nH]1` [Example 2, 6-methyl-imadazol[2,1-b]thiazole-5-carboxylic acid[3-(5-morpholin-4-ylmethyl-1H-benzoimidazol-2-yl)-1H-pyrazol-4-yl]-amide], in series [1], the IC50 is < 50 µM.

With `N#CCC(=O)Nc1c[nH]nc1-c1nc2cc(CN3CCOCC3)ccc2[nH]1` [Example 3, 2-cyano-N-[3-(5-morpholin-4-ylmethyl-1H-benzoimidaxol-2-yl)-1H-pyrazol-4-yl]-acetamide], the half-maximal inhibitory concentration (IC50) in series [1] is < 10 µM.

In the case of `N#CC(C(=O)Nc1c[nH]nc1-c1nc2cc(CN3CCOCC3)ccc2[nH]1)C1CC1` (stereo not shown) [Example 4, 2-Cyano-2-cyclopropyl-N-[3-(5-morpholin-4-ylmethyl-1H-benzoimidazol-2-yl)-1H-pyrazol-4-yl]-acetamide], in series [1], the IC50 is < 1 µM.

`CC(C)(CO)C(=O)Nc1c[nH]nc1-c1nc2cc(CN3CCOCC3)ccc2[nH]1` [Example 8]: the IC50 in series [1] is < 10 µM.

Regarding `O=C(Nc1c[nH]nc1-c1nc2cc(CN3CCOCC3)ccc2[nH]1)C1CCOC1` (stereo not shown) [Example 9], the concentration for half-maximal inhibition (IC50) in series [1] was < 10 µM.

With `O=C(CC1CC1)Nc1c[nH]nc1-c1nc2cc(CN3CCOCC3)ccc2[nH]1` [Example 10], the IC50 in series [2] and in series [1] was < 1 µM throughout.

Consider `O=C(Nc1c[nH]nc1-c1nc2cc(CN3CCOCC3)ccc2[nH]1)C1CCCO1` (stereo not shown) [Example 11], for which the IC50 in series [2] and in series [1] was < 1 µM in each case.

`O=C(Nc1c[nH]nc1-c1nc2cc(CN3CCOCC3)ccc2[nH]1)[C@@H]1CCCO1` [Example 13]: in series [1], the IC50 is < 1 µM.

With `COc1cc2nc(-c3n[nH]cc3NC(=O)c3cc(Cl)cc(N4CCN(C)CC4)c3)[nH]c2cc1OC` [Example 18, 3-chloro-N-(5,6-dimethoxy-1H-benzoimidazol-2-yl)-1H-pyrazol-4-yl-5-(4-methyl-piperazin-1-yl)-benzamide], in series [2], the IC50 is < 1 µM.

As for `COc1cc2nc(-c3n[nH]cc3NC(=O)c3ccoc3CN(C)C)[nH]c2cc1OC` [Example 20], the IC50 was < 1 µM in series [2] and < 10 µM in series [1].

Regarding `COc1ccc(Cl)cc1C(=O)Nc1c[nH]nc1-c1nc2cc(CN3CCN(C)CC3)ccc2[nH]1` [Example 22, 5-chloro-2-methoxy-N-{3-[5-(4-methyl-piperazin-1-ylmethyl)-1H-benzoimidazol-2-yl]-1H-pyrazol-4-yl}-benzamide], the IC50 in series [2] and in series [1] was < 1 µM throughout.

For `O=C(NCc1c(F)cccc1F)Nc1c[nH]nc1-c1nc2cc(CN3CCOCC3)ccc2[nH]1` [Example 23], the IC50 in series [1] is < 50 µM.

With `O=C(Nc1c[nH]nc1-c1nc2cc(CN3CCOCC3)ccc2[nH]1)NC1CC1` [Example 24, 1-cyclopropyl-3-[3-(5-morpholin-4-ylmethyl-1H-benzoimidazol-2-yl)-1H-pyrazol-4-yl]-urea], the IC50 is < 10 µM in series [1] and < 1 µM in series [3] (Homo sapiens, HCT-116, 72 hours compound, Alamar Blue, read-out: IC50, inhibition of cell growth, HCT-116 cell line). Further, the “minimum concentration at which polyploidy or multinucleation is observed” value in series [3] (HCT-116 cell line) is reported as “less than 100 nM”. Further, the “change of XRPD pattern on storage” value in series [4] is reported as “do not change”.

As for `O=C(NCC1CCOCC1)Nc1c[nH]nc1-c1nc2cc(CN3CCOCC3)ccc2[nH]1` [Example 26], the IC50 in series [1] was < 50 µM.

Regarding `O=C(Nc1c[nH]nc1-c1nc2cc(CN3CCOCC3)ccc2[nH]1)NC1CCOCC1` [Example 27], in series [1], the IC50 was < 50 µM.

With `O=C(Nc1c[nH]nc1-c1nc2cc(CN3CCOCC3)ccc2[nH]1)N1Cc2ccccc2C1` [Example 28], in series [1], the IC50 was < 10 µM.

On to `O=C(Nc1c[nH]nc1-c1nc2cc(CN3CCOCC3)ccc2[nH]1)N1CCc2ccccc21` [Example 29], for which, in series [1], the IC50 is < 10 µM.

With `O=C(Nc1c[nH]nc1-c1nc2cc(CN3CCOCC3)ccc2[nH]1)NN1CCCC1` [Example 30], the IC50 in series [2] is < 1 µM.

Regarding `CN(C)NC(=O)Nc1c[nH]nc1-c1nc2cc(CN3CCOCC3)ccc2[nH]1` [Example 31], the IC50 is < 1 µM in series [2] and < 10 µM in series [1].

Regarding `O=C(Nc1c[nH]nc1-c1nc2cc(CN3CCOCC3)ccc2[nH]1)NN1CCOCC1` [Example 32], the IC50 in series [2] was < 1 µM; in series [1] it was < 10 µM.

With `CS(=O)(=O)CCNC(=O)Nc1c[nH]nc1-c1nc2cc(CN3CCOCC3)ccc2[nH]1` [Example 33], the IC50 in series [1] was < 50 µM.

Regarding `O=C(NCC1CC1)Nc1c[nH]nc1-c1nc2cc(CN3CCOCC3)ccc2[nH]1` [Example 34], in series [1], the IC50 was < 10 µM.

As to `CN(C(=O)Nc1c[nH]nc1-c1nc2cc(CN3CCOCC3)ccc2[nH]1)c1ccc(F)cc1` [Example 37, 1-(4-fluorophenyl)-1-methyl-3-[3-(5-morpholin-4-ylmethyl-1H-benzimadazol-2-yl)-1H-pyrazol-4-yl]-urea], in series [1], the IC50 is < 50 µM.

On to `Cn1cccc(NC(=O)Nc2c[nH]nc2-c2nc3cc(CN4CCOCC4)ccc3[nH]2)c1=O` [Example 39], for which the IC50 in series [1] was < 10 µM.

Take `CN(C(=O)Nc1c[nH]nc1-c1nc2cc(CN3CCOCC3)ccc2[nH]1)c1cccc(F)c1` [Example 41]: the IC50 in series [1] was < 10 µM.

As for `CN(C(=O)Nc1c[nH]nc1-c1nc2cc(CN3CCOCC3)ccc2[nH]1)c1ccc(F)cc1F` [Example 42], the IC50 in series [1] was < 1 µM.

In the case of `CN(C(=O)Nc1c[nH]nc1-c1nc2cc(CN3CCOCC3)ccc2[nH]1)c1ccccc1F` [Example 43], the IC50 in series [1] was < 50 µM.

`O=C(Nc1ccc(F)cc1)Nc1c[nH]nc1-c1nc2cc(CN3CCOCC3)ccc2[nH]1` [Example 44, 1-(4-fluorophenyl)-N-[3-(5-morpholin-4-ylmethyl-1H-benzimidazol-2-yl)-1H-pyrazol-4-yl]-urea]: the IC50 in series [2] is < 10 µM.

On to `CC(C)(C)NC(=O)Nc1c[nH]nc1-c1nc2cc(CN3CCOCC3)ccc2[nH]1` [Example 45], for which the IC50 in series [2] and in series [1] was < 10 µM throughout.

For `O=C(Nc1ccc(F)cc1F)Nc1c[nH]nc1-c1nc2cc(CN3CCOCC3)ccc2[nH]1` [Example 46], the IC50 was < 1 µM in series [2] and < 10 µM in series [1].

With `O=C(Nc1cc(F)ccc1F)Nc1c[nH]nc1-c1nc2cc(CN3CCOCC3)ccc2[nH]1` [Example 47], the IC50 in series [2] and in series [1] was < 1 µM in each case.

Take `O=C(Nc1ccccc1F)Nc1c[nH]nc1-c1nc2cc(CN3CCOCC3)ccc2[nH]1` [Example 49]: the IC50 in series [1] is < 10 µM.

Take `O=C(Nc1cccc(F)c1)Nc1c[nH]nc1-c1nc2cc(CN3CCOCC3)ccc2[nH]1` [Example 50]: in series [1], the IC50 is < 10 µM.

Consider `O=C(Nc1c[nH]nc1-c1nc2cc(CN3CCOCC3)ccc2[nH]1)NC1CCCCC1` [Example 51], for which the IC50 in series [2] and in series [1] was < 10 µM in each case.

Turning to `O=C(NCc1ccco1)Nc1c[nH]nc1-c1nc2cc(CN3CCOCC3)ccc2[nH]1` [Example 52], the IC50 in series [1] was < 10 µM.

Turning to `O=C(Nc1cc(F)cc(F)c1)Nc1c[nH]nc1-c1nc2cc(CN3CCOCC3)ccc2[nH]1` [Example 53], the IC50 in series [2] and in series [1] was < 10 µM each time.

For `O=C(Nc1c[nH]nc1-c1nc2cc(CN3CCOCC3)ccc2[nH]1)Nc1c(F)cc(F)cc1F` [Example 54], the IC50 in series [2] and in series [1] was < 1 µM throughout.

As for `COc1ccc(Cl)cc1NC(=O)Nc1c[nH]nc1-c1nc2cc(CN3CCOCC3)ccc2[nH]1` [Example 56], the IC50 in series [1] was < 10 µM.

Turning to `O.O.O=C(Nc1c[nH]nc1-c1nc2cc(CN3CCOCC3)ccc2[nH]1)NC1CC1` [dihydrate free base (FB2), 1-cyclopropyl-3-[3-(5-morpholin-4-ylmethyl-1H-benzoimidazol-2-yl)-1H-pyrazol-4-yl]-urea free base dihydrate], the “change of XRPD pattern on storage” value in series [4] is given as “do not change”.
